Data taken from article PMC5460289, “Identification of New Shikonin Derivatives as Antitumor Agents Targeting STAT3 SH2 Domain” (Scientific Reports, 2017).

Legend:
Assay type in all cases: cell-based, human
BT-474 = test: MTT anti-proliferation assay; conditions: 24 h treatment
Description: (§1) Initial experiments were performed for evaluation of growth inhibition by the new compounds against six human breast cancer cell lines, including MCF-7 (ER+/PR+, HER-2-), BT474 (ER+/PR+, HER-2+), SKBR-3 (ER-/PR-/HER-2+), MDA-MB-436 (ER-/PR-/HER-2-), MDA-MB-231 (ER-/PR-/HER-2-), MDA-MB-468 (ER-/PR-/HER-2-) and non-tumorigenic MCF-10A cells. After 24 h treatment by the obtained compounds, the inhibition was assessed and the IC50 was summarized. […] Subsequently, the inhibition of STAT3 activation by PMM-172 and Stattic was evaluated using a dual-luciferase assay.
(§2) The anti-proliferative activities of the prepared compounds against MCF-7 (ER+/PR+, HER-2-), BT474 (ER+/PR+, HER-2+), SKBR-3 (ER-/PR-/HER-2+), MDA-MB-436 (ER-/PR-/HER-2-), MDA-MB-231 (ER-/PR-/HER-2-), MDA-MB-468 (ER-/PR-/HER-2-) and non-tumorigenic MCF-10A cell lines were evaluated using a standard (MTT)-based colorimetric assay with some modification. Cell lines were grown to log phase in DMEM supplemented with 10% fetal bovine serum. Cell suspensions were prepared and 100 μL/well dispensed into 96-well plates giving 10^4 cells/well. The subsequent incubation was permitted at 37 °C, 5% CO2 atmosphere for 24 h to allow the cells to reattach. Subsequently, cells were treated with the target compounds at increasing concentrations in the presence of 10% FBS for 24 h. Then, cell viability was assessed by the conventional 3-(4, 5-dimethylthiazol-2-yl)-2, 5-diphenyltetrazolium bromide (MTT) reduction assay and carried out strictly according to the manufacturer instructions. The absorbance (OD570) was read on an ELISA reader (Tecan, Austria). In all experiments, three replicate wells were used for each drug concentration. Each assay was carried out for at least three times.

MCF-7 = test: MTT anti-proliferation assay; conditions: 24 h treatment
Description: as §1, §2

MDA-MB-231 = test: MTT anti-proliferation assay; conditions: 24 h treatment
Description: as §1, §2

MDA-MB-436 = test: MTT anti-proliferation assay; conditions: 24 h treatment
Description: as §1, §2

MDA-MB-468 = test: MTT anti-proliferation assay; conditions: 24 h treatment
Description: as §1, §2

SKBR-3 = test: MTT anti-proliferation assay; conditions: 24 h treatment
Description: as §1, §2

[1] = system: STAT3-TATA-Luc reporter in MDA-MB-231 cells; test: STAT3 dual-luciferase reporter assay; conditions: MDA-MB-231, 24 h treatment
Description: Figure 3 MDA-MB-231 cells were transfected with STAT3-TATA-Luc reporter and Renilla luciferase reporter plasmids. After 24 h, cells were treated with indicated concentrations of PMM-172 or Stattic for 24 h and then luciferase intensity was measured. Results are fold change ± SD of three independent experiments, *P < 0.05, **P < 0.01.
Cells were seeded in 24 well plates and transiently transfected together with STAT3 reporter plasmid 4 × M67 pTATA TK-Luc (0.2 μg/per well, Addgene, USA) and Renilla luciferase control reporter plasmid pRL-CMV (0.1 μg/per well, promega, USA), using lipofectamine 2000 (Invitrogen, USA). Then the cells were incubated with complete medium for 24 h with PMM-172 or Stattic. Following the treatment, the cells were harvested in 100 μL of passive lysis buffer (Promega, USA) in each well. A 25 μL aliquot of cell lysate was subjected to a luciferase assay by using the dual-luciferase assay kit (Promega, USA). STAT3 luciferase activity was measured by EnVision Mutilabel Reader (Perkin Elmer, USA). Relative luciferase activity was calculated after the activity of STAT3-dependent firefly luciferase had been normalized to that of Renilla luciferase. All values are expressed as - fold induction relative to basal activity.

[2] = system: pSTAT3 (Tyr705) in MDA-MB-231 cells; test: Western blot of constitutive STAT3 activation
Description: It has been well recognized that the aberrant activation of STAT3 contributes to malignant transformation and tumorgenesis, and its activity is ultimately dependent upon phosphorylation of residue Y705. […] In this study, the ability of PMM-172 and Stattic inhibiting the constitutive STAT3 activation in MDA-MB-231 cells was investigated. […] We further measured STAT3 phosphorylation at Tyr705 in a time-course experiment.
Figure 6 (A) PMM-172 suppressed constitutive pSTAT3 (Tyr705) in a dose-dependent manner. (B) PMM-172 suppressed constitutive pSTAT3 (Tyr705) in a time-dependent manner. (C) MDA-MB-231 cells were treated with IL-6 (20 ng/mL) or vehicle for 30 min, with or without pretreatment with PMM-172 (2 μM) for 24 h. PMM-172 inhibited IL-6 induced phosphorylation of STAT3. (D) Stattic suppressed constitutive pSTAT3 (Tyr705) in a dose-dependent manner. (E) Stattic suppressed constitutive pSTAT3 (Tyr705) in a time-dependent manner. (F) Tyrosine phosphorylation of two STAT family proteins STAT1 and STAT5 were detected with specific antibodies. […] Data were shown as mean ± SD of three independent experiments. *P < 0.05, **P < 0.01. Cropped blots/gels were used in the figure and the gels had been run under the same experimental conditions; the full-length blots/gels are presented in Supplementary Figure S2.
Cells were rinsed twice with cold PBS and then lysed with RIPA buffer containing a protease inhibitor mixture at 1:100 dilution on ice for 30 min. Insoluble components of cell lysates were removed by centrifugation (4 °C, 12000 rmp, 10 min), and protein concentrations were measured using a Pierce BCA protein assay kit. Proteins were separated by sodium dodecyl sulfate-polyacrylamide gel electrophoresis (SDS-PAGE) and transferred from the gel onto polyvinylidene difluoride (PVDF) membranes. The membranes were blocked with 5% skim milk in TBST buffer for 1 h at room temperature, and then incubated with corresponding primary antibodies diluted in 5% milk-TBST solution at 4 °C with gentle shaking overnight. After washing five times (5 min each), corresponding HRP-conjugated secondary antibodies were incubated for 1 h at room temperature. Immunoreactive bands were visualized using an ECL detection kit (Invitrogen, USA) following the manufacturer’s instruction.

[3] = system: STAT3 nuclear localization in MDA-MB-231 cells; test: STAT3 nuclear localization (cytoplasmic and nuclear extracts, Western blot); conditions: MDA-MB-231, 24 h
Description: It is known that the dimerization of STAT3 is induced by the phosphorylation at residue Tyr 705, which then leads to its nuclear translocation. Herein, we investigated the effect of PMM-172 and Stattic on STAT3 nuclear translocation. The cytoplasmic and nuclear proteins of treated cells were extracted and the expressions of STAT3 in both fractions were examined.
Figure 7 MDA-MB-231 cells were treated with indicated concentrations of PMM-172 or Stattic for 24 h, the expression levels of STAT3 in cytoplasmic and nuclear extracts were examined and relative expression levels were analyzed by Image J software. β-actin and Lamin B1 served as markers of cytoplasmic and nuclear extractions, respectively. […] (C) MCF-10A cells were treated with the indicated concentrations of PMM-172 for 24 h. PMM-172 had no effect on the level of the pSTAT3 level in MCF-10A cells. […] Data were shown as mean ± SD from three independent experiments, **P < 0.01. Cropped blots/gels were used in the figure and the gels had been run under the same experimental conditions; the full-length blots/gels are presented in Supplementary Figure S3.
To examine the relative proportion of STAT3 in the cytoplasm and nucleus, cytoplasmic and nuclear extracts were prepared. In brief, control and treated cells were collected and suspended in a buffer containing 10 mM HEPES (pH 7.9), 10 mM KCl, 0.1 mM EDTA (pH 8.0), 0.1 mM EGTA (pH 7.0), 1 mM DTT, 0.5 mM PMSF, 2 μg/mL leupeptin, 2 μg/mL aprotonin, 0.5 mg/mL benzamidine. After 15 min, NP-40 (0.25%) was added, and cell lysate was vortexed for 10 s and centrifuged at 10000 rmp at 4 °C for 1 min. […] The protein content in the nuclear and cytoplasmic fractions was determined using a Pierce BCA protein assay kit.
Cells were rinsed twice with cold PBS and then lysed with RIPA buffer containing a protease inhibitor mixture at 1:100 dilution on ice for 30 min. Insoluble components of cell lysates were removed by centrifugation (4 °C, 12000 rmp, 10 min), and protein concentrations were measured using a Pierce BCA protein assay kit. […]

O=[N+]([O-])c1ccc2c(c1)S(=O)(=O)C=C2 [Stattic, reference compound]
IC50 (BT-474): 5.11 ± 0.57 µM | IC50 (MCF-7): 5.85 ± 0.72 µM | IC50 (MDA-MB-231): 3.18 ± 0.33 µM | IC50 (MDA-MB-436): 3.76 ± 0.5 µM | IC50 (MDA-MB-468): 3.54 ± 0.42 µM | IC50 (SKBR-3): 3.39 ± 0.56 µM | STAT3 luciferase activity [1]: only a slight advantage over PMM-172 | STAT3 expression [2]: had no effect on STAT3 expression | STAT3 phosphorylation at Tyr705, time-course [2]: reduced with the longer treatment | level of Y705-phosphorylated STAT3 (constitutive), dose series [2]: could reduce the level of Y705-phosphorylated STAT3 in MDA-MB-231 cells in a dose-dependent manner | level of STAT3 in the nuclear fraction [3]: suppressed STAT3 nuclear localization
